The results in this text go back to patent publication KR20140086355A, “콜치신 유도체를 유효성분으로 포함하는 암의 예방 또는 치료용 조성물” (한국화학연구원, priority 2012, dated 2014).

Common to all, as to format: cell-based
In test [1] the test system is human colorectal cancer cells HCT116 [인간 대장암 세포, HCT116]. Briefly: alamarBlue cell proliferation assay, human colorectal cancer cells HCT116. Particulars: 48 h, concentration dependence (Fig. 3: 100nM-1μM; Fig. 9).
Test [2] concerns PLK-1. Description: PLK-1 ELISA in HCT116 cells. As to conditions: HCT116, 48 h. A general note: An ELISA detects its analyte on a solid surface through an enzyme-linked reagent.
The test system of test [3] is PLK-1. Description: Western blot of Plk-1 in HCT116 cells. As to conditions: HCT116, 48 h; listed as 콜치신. (A western blot detects proteins with antibodies after separation by electrophoresis.)
Test [4] has as its system human colorectal cancer cells [인간 대장암 세포]. Description: Apoptosis induction in human colorectal cancer cells (Western blot). As to conditions: listed as 콜치신.

The structures appear in SMILES notation. “Also recorded” adds a separate entry of the source.

For `COc1cc2c(c(OC)c1OC)-c1ccc(OC)c(=O)cc1[C@@H](NC(C)=O)CC2` [H11-G04, Colchicine], the “inhibition of cell proliferation” value in test [1] is listed as “세포증식이 농도에 따라 유의적으로 억제되는 효과가 나타났다”. Besides, the Plk-1 concentration result in test [2] was “콜치신에 의해 Plk-1 농도가 감소함”. In test [3], the “inhibition of Plk-1 expression” value is reported as “콜치신이 Plk-1의 발현을 억제함; also recorded: Plk-1의 발현도 역시 억제된다”. The induction of apoptosis entry in test [4] is on record as “콜치신이 인간 대장암 세포의 사멸(apoptosis)를 유도함; also recorded: 세포사멸을 유도”.
